Test results taken from paper PMC4414066 (Journal of medicinal chemistry, 2015).

Columns and labels:
hGlyR-α1 = target: T1, hGlyR-α1 (Homo sapiens, UniProt P23415); type: cell-based; details: for potentiation effect on the channel current (representative traces): 10 μM modulator, glycine EC5, Figure 5a; for potentiation up to the maximum tested concentration: up to 10 μM, glycine EC5
T1 sequence (P23415 29-457): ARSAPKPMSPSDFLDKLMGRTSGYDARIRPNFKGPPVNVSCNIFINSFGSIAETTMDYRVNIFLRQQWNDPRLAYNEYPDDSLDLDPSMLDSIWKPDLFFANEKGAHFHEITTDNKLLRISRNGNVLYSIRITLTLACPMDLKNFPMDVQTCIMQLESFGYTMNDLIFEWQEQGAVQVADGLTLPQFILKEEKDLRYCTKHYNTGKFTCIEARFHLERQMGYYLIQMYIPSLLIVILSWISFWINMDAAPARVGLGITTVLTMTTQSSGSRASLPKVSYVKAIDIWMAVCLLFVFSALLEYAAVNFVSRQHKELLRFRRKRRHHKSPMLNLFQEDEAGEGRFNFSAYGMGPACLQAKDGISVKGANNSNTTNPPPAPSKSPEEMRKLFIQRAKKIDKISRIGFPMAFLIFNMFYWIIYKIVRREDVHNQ

α7nAChR = details: previous finding; cited from earlier work

Cc1nc2c([nH]1)-c1ccccc1N(C(=O)c1ccc(NC(=O)c3ccccc3-c3ccccc3)cc1)CC2 [Conivaptan]
potentiation effect on the channel current (representative traces) (hGlyR-α1): no potentiation | potentiation up to the maximum tested concentration (hGlyR-α1): did not show potentiation

CCCCCc1cc(O)c2c(c1)OC(C)(C)[C@@H]1CCC(C)=C[C@@H]21 [THC, Δ^9-tetrahydrocannabinol]
effect on α7nAChR function (α7nAChR): little effect

COc1cc(OC)c(NC(=O)Nc2cc(C)on2)cc1Cl [PNU-120596]
potentiation up to the maximum tested concentration (hGlyR-α1): did not show potentiation

O=c1[nH]c2ccccc2n1C1CCN(CCCC(c2ccc(F)cc2)c2ccc(F)cc2)CC1 [Pimozide]
potentiation effect on the channel current (representative traces) (hGlyR-α1): much greater potentiation effect on the channel current than THC
